From patent US9809609B2, “Water-soluble benzoazepine compound and its pharmaceutical composition” (OTSUKA PHARMACEUTICAL CO., LTD., priority 2005, dated 2017)
≈ marks a conversion by molar mass, not a printed value. Marks after values point to notes of the source that are not given here.

Legend:
[1] = Solubility of salt of compound (1) in water at 37° C.; type: physicochemical; details: thermodynamic from solid, shaking at 37° C. for 30 minutes
Experimental: A suitable amount of test compound is added to a test tube, and 2.5 ml of water is added thereto. After shaking at 37° C. for 30 minutes, the mixture is filtered through a 0.45-μm membrane filter, and 0.5 ml of the filtrate is accurately weighed. Mobile phase is added thereto to make exactly 50 ml, preparing a test solution (dilution ratio: 100-fold). Approximately 5 mg of free-form authentic sample is accurately weighed, and acetonitrile is added thereto to make exactly 50 ml. A 2 ml of this liquid is accurately weighed, and mobile phase is added thereto to make exactly 20 ml, preparing a standard solution (equivalent to 10 μg/ml). By liquid chromatography under the following conditions, 20 μl of both the test solution and standard solution are tested to obtain the peak areas At and As of the test solution and standard solution. Concentration(μg/ml)=Ws/5×10×At/As×100=Ws×At/As×200 Ws: weighed amount of authentic sample (mg) Test Conditions • Detection: ultraviolet absorption photometer • (measurement wavelength: 254 nm) • Column: TOSOH TSKgel ODS-80Ts (0.46 cm×15 cm) • Column temperature: constant temperature of approximately 40° C. • Mobile phase: water/acetonitrile/trifluoroacetic acid=500/500/1 • Flow rate: 1 ml/min

[2] = Serum concentration of tolvaptan in female rats after tail-vein administration of a compound (1b) solution; type: in vivo; details: dose producing 1 mg of tolvaptan per kg of body weight
Experimental: A solution of compound (1b) (equivalent to 1 mg of tolvaptan per ml of solution) was prepared. [table] A 79 mg quantity of sodium dihydrogenphosphate•dihydrate and 5 g of mannitol were dissolved in about 90 ml of water for injection. A sodium hydroxide solution was added thereto, and a solution of pH 7 was prepared. Compound (1b) equivalent to 100 mg of tolvaptan was dissolved in this solution. A sodium hydroxide solution was added thereto, and the pH was adjusted to 7. […] This solution was rapidly administered to female rats via the tail vein at a dose such that 1 mg of tolvaptan is produced per kg of body weight. From time to time, blood was collected from the jugular vein under light ethyl ether anesthesia, and serum concentration of tolvaptan was determined by high-speed liquid chromatography (HPLC).

[3] = Solubility of compound (1b) in buffer solution (room temperature); type: physicochemical; details: for Solubility of compound (1b): crystals could not be added in excess; for solubility thermodynamic at 16 days: thermodynamic from solid, shaken 16 days
[4] = Solubility of tolvaptan in Britton-Robinson buffer and purified water; type: physicochemical; details: thermodynamic from solid, shaken 4 hours
Experimental: Tolvaptan was added in excess to Britton-Robinson buffer (pH 2, pH 7, or pH 12) or purified water, and then shaken at 25° C.±1° C. for 4 hours. Each solution was filtered through a filter, and then, using HPLC, the solubility of tolvaptan was quantified by absolute calibration.

Structure (SMILES): Cc1ccccc1C(=O)Nc1ccc(C(=O)N2CCCC(OP(=O)([O-])[O-])c3cc(Cl)ccc32)c(C)c1.[Mg+2] (stereo not shown) [Example 7]
- solubility at 30 min [1]: > 1000 µg/mL

Structure (SMILES): Cc1ccccc1C(=O)Nc1ccc(C(=O)N2CCCC(OP(=O)([O-])O)c3cc(Cl)ccc32)c(C)c1.[Na+] (stereo not shown) [Example 8]
- solubility at 30 min [1]: > 1000 µg/mL

Structure (SMILES): Cc1ccccc1C(=O)Nc1ccc(C(=O)N2CCCC(OP(=O)([O-])O)c3cc(Cl)ccc32)c(C)c1.[K+] (stereo not shown) [Example 11]
- solubility at 30 min [1]: > 1000 µg/mL

Structure (SMILES): COP(=O)(NCCO)OC1CCCN(C(=O)c2ccc(NC(=O)c3ccccc3C)cc2C)c2ccc(Cl)cc21 (stereo not shown) [Example 20]
- solubility at 30 min [1]: > 1000 µg/mL

Structure (SMILES): Cc1ccccc1C(=O)Nc1ccc(C(=O)N2CCCC(OP(=O)(O)O)c3cc(Cl)ccc32)c(C)c1 (stereo not shown) [compound (1b)]
- Time at which tolvaptan was initially detected in serum after intravenous administration ([2]; rapid tail-vein administration of compound (1b) solution): five
- Hydrolysis of compound (1b) into tolvaptan in rats ([2]; tail-vein administration): rapidly hydrolyzed into tolvaptan
- melting point: 150 to 152 °C
- solubility at 30 min [1]: > 1000 µg/mL
- Solubility of compound (1b) ([3]; Citric acid buffer (100 mM), pH before dissolution 8, pH after dissolution 4.2, room temperature): at least 8.3* w/v %
- Solubility of compound (1b) ([3]; Sodium hydrogencarbonate buffer (100 mM), pH before dissolution 8, pH after dissolution 3.1, room temperature): at least 7.1* w/v %
- Solubility of compound (1b) ([3]; Sodium phosphate buffer (100 mM), pH before dissolution 8, pH after dissolution 3.3, room temperature): at least 7.1* w/v %
- Solubility of compound (1b) ([3]; Sodium phosphate buffer (100 mM), pH before dissolution 9, pH after dissolution 3.3, room temperature): at least 7.4* w/v %
- Solubility of compound (1b) ([3]; Sodium phosphate buffer (100 mM), pH before dissolution 10, pH after dissolution 3.4, room temperature): at least 6.5* w/v %
- Solubility of compound (1b) ([3]; Tris buffer (100 mM), pH before dissolution 9, pH after dissolution 3.4, room temperature): at least 6.3* w/v %
- solubility thermodynamic at 16 days ([3]; Tris/HCl buffer, pH 8, aqueous buffer, Tris buffer (100 mM), pH before dissolution 8, pH after dissolution 2.9, room temperature): 7400 µg/mL (≈ 14 mM)
- solubility thermodynamic at 16 days ([3]; pH 5, aqueous buffer, Sodium phosphate buffer (100 mM), pH before dissolution 5, pH after dissolution 3.0, room temperature): 5800 µg/mL (≈ 11 mM)
- solubility thermodynamic at 16 days ([3]; pH 6, aqueous buffer, Sodium phosphate buffer (100 mM), pH before dissolution 6, pH after dissolution 3.0, room temperature): 13100 µg/mL (≈ 24.8 mM)
- solubility thermodynamic at 16 days ([3]; pH 7, aqueous buffer, Sodium phosphate buffer (100 mM), pH before dissolution 7, pH after dissolution 3.1, room temperature): 7600 µg/mL (≈ 14.4 mM)

Structure (SMILES): Cc1ccccc1C(=O)Nc1ccc(C(=O)N2CCCC(O)c3cc(Cl)ccc32)c(C)c1 (stereo not shown) [tolvaptan, Tolvaptan]
- solubility thermodynamic at 4 h ([4]; aqueous buffer, Britton-Robinson buffer pH 2, 25° C.±1° C.): 0.2 µg/mL (≈ 0.000445 mM)
- solubility thermodynamic at 4 h ([4]; aqueous buffer, Britton-Robinson buffer pH 7, 25° C.±1° C.): 0.3 µg/mL (≈ 0.000668 mM)
- solubility thermodynamic at 4 h ([4]; aqueous buffer, Britton-Robinson buffer pH 12, 25° C.±1° C.): 0.2 µg/mL (≈ 0.000445 mM)
- solubility thermodynamic at 4 h ([4]; purified water, 25° C.±1° C.): 0.2 µg/mL (≈ 0.000445 mM)
